Laboratory results published in US20110105326A1, “Method for Enhancing the Rainfastness of Glyphosate” (BASF SE, priority 2008, published 2011).

Tests used:
Assay type in all cases: in vivo
[1] = test system: Brachiaria decumbens (BRADE); assay: herbicidal action with/without simulated rainfall after treatment, Brachiaria decumbens; design: key: % damage vs untreated control; 0 = no damage, 100 = complete destruction
How it was run: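 Glyphosate alone, component B alone or their mixture sprayed at 200 l/ha on weeds at the 6–8 leaf stage. Simulated rain of 20 mm applied 15 min, 30 min, 1, 2, 3, 4 or 6 h after treatment. Damage scored 0–100% against untreated controls.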

Bidens pilosa (BIDPI) = assay: herbicidal action with/without simulated rainfall after treatment, Bidens pilosa; conditions: Example 9, flumioxazin 60 g/ha, glyphosate 1080 g/ha, 0.5% v/v Dash in Flumioxazin and mixture
Description: (§1) The enhancement of the rainfastness of glyphosate was determined via the herbicidal activity of the mixture comprising glyphosate and the respective rainfastness enhancing herbicidal component B as well as of the single herbicidal components in relation to simulated rainfall at different time intervals.
(§2) The evaluation of the damage caused by the method and the compositions the according to the present invention and the single herbicidal components was carried out using a scale from 0 to 100%, compared to the untreated control plots. Here, 0 means no damage and 100 means complete destruction of the plants of a respective weed or crop species.
(§3) The application was performed with a fixed spayer system with air pressurization and with a tank spray volume of two liters. The speed of the spray device over the plants was adjusted for a spray volume of 200 I/ha. The spray device was a spray barr with four nozzles from the type Teejet XR 11002VS with a space of 50 cm between each nozzle.
(§4) The application was performed at a weed stage of 6 to 8 leaves. After the application of the formulated herbicides the leaves were washed through rain of 20 mm using a fixed rain simulator system at following time interval: 15 min, 30 min, 1, 2, 3, 4 and 6 hours after treatment.

[2] = test system: Ipomoea grandifolia (IPOGR); assay: herbicidal action with/without simulated rainfall after treatment, Ipomoea grandifolia; conditions: Example 10, flumioxazin 60 g/ha, glyphosate 1080 g/ha, 0.5% v/v Dash in Flumioxazin and mixture
Description: as §1, §2, §3, §4

[3] = simulated rainfall 15 min after treatment, 1 DAA
[4] = simulated rainfall 15 min after treatment, 2 DAA
[5] = simulated rainfall 15 min after treatment, 3 DAA
[6] = simulated rainfall 15 min after treatment, 7 DAA
[7] = simulated rainfall 2 hours after treatment, 1 DAA
[8] = simulated rainfall 2 hours after treatment, 2 DAA
[9] = simulated rainfall 2 hours after treatment, 3 DAA
[10] = simulated rainfall 2 hours after treatment, 7 DAA
[11] = without simulated rainfall, 1 DAA
[12] = without simulated rainfall, 2 DAA
[13] = without simulated rainfall, 3 DAA
[14] = without simulated rainfall, 7 DAA

C#CCN1C(=O)COc2cc(F)c(N3C(=O)C4=C(CCCC4)C3=O)cc21 [Flumioxazin, flumioxazin]
herbicidal action against BRADE ([1]; Example 11, simulated rainfall 15 min after treatment, 1 DAA, flumioxazin 60 g/ha, glyphosate 1080 g/ha, 0.5% v/v Dash in Flumioxazin and mixture): 28.33% | herbicidal action against BRADE ([1]; Example 11, simulated rainfall 15 min after treatment, 2 DAA, flumioxazin 60 g/ha, glyphosate 1080 g/ha, 0.5% v/v Dash in Flumioxazin and mixture): 64.66% | herbicidal action against BRADE ([1]; Example 11, simulated rainfall 15 min after treatment, 3 DAA, flumioxazin 60 g/ha, glyphosate 1080 g/ha, 0.5% v/v Dash in Flumioxazin and mixture): 80% | herbicidal action against BRADE ([1]; Example 11, simulated rainfall 15 min after treatment, 7 DAA, flumioxazin 60 g/ha, glyphosate 1080 g/ha, 0.5% v/v Dash in Flumioxazin and mixture): 82.33% | herbicidal action against BRADE ([1]; Example 11, simulated rainfall 30 min after treatment, 1 DAA, flumioxazin 60 g/ha, glyphosate 1080 g/ha, 0.5% v/v Dash in Flumioxazin and mixture): 22.33% | herbicidal action against BRADE ([1]; Example 11, simulated rainfall 30 min after treatment, 2 DAA, flumioxazin 60 g/ha, glyphosate 1080 g/ha, 0.5% v/v Dash in Flumioxazin and mixture): 53.66% | herbicidal action against BRADE ([1]; Example 11, simulated rainfall 30 min after treatment, 3 DAA, flumioxazin 60 g/ha, glyphosate 1080 g/ha, 0.5% v/v Dash in Flumioxazin and mixture): 76% | herbicidal action against BRADE ([1]; Example 11, simulated rainfall 30 min after treatment, 7 DAA, flumioxazin 60 g/ha, glyphosate 1080 g/ha, 0.5% v/v Dash in Flumioxazin and mixture): 76.66% | herbicidal action against BRADE ([1]; Example 11, without simulated rainfall, 1 DAA, flumioxazin 60 g/ha, glyphosate 1080 g/ha, 0.5% v/v Dash in Flumioxazin and mixture): 14.66% | herbicidal action against BRADE ([1]; Example 11, without simulated rainfall, 2 DAA, flumioxazin 60 g/ha, glyphosate 1080 g/ha, 0.5% v/v Dash in Flumioxazin and mixture): 41% | herbicidal action against BRADE ([1]; Example 11, without simulated rainfall, 3 DAA, flumioxazin 60 g/ha, glyphosate 1080 g/ha, 0.5% v/v Dash in Flumioxazin and mixture): 42.66% | herbicidal action against BRADE ([1]; Example 11, without simulated rainfall, 7 DAA, flumioxazin 60 g/ha, glyphosate 1080 g/ha, 0.5% v/v Dash in Flumioxazin and mixture): 51% | herbicidal action against BRADE ([1]; simulated rainfall 2 hours after treatment, 1 DAA, Example 11.4): 16.33 | herbicidal action against BRADE ([1]; simulated rainfall 2 hours after treatment, 2 DAA, Example 11.4): 50.66 | herbicidal action against BRADE ([1]; simulated rainfall 2 hours after treatment, 3 DAA, Example 11.4): 65 | herbicidal action against BRADE ([1]; simulated rainfall 2 hours after treatment, 7 DAA, Example 11.4): 80 | herbicidal action against BRADE ([1]; simulated rainfall 6 hours after treatment, 1 DAA, Example 11.5): 21.66 | herbicidal action against BRADE ([1]; simulated rainfall 6 hours after treatment, 2 DAA, Example 11.5): 44.33 | herbicidal action against BRADE ([1]; simulated rainfall 6 hours after treatment, 3 DAA, Example 11.5): 63.33 | herbicidal action against BRADE ([1]; simulated rainfall 6 hours after treatment, 7 DAA, Example 11.5): 65 | herbicidal action against BIDPI (Bidens pilosa (BIDPI); [3]): 51% | herbicidal action against BIDPI (Bidens pilosa (BIDPI); [4]): 59.66% | herbicidal action against BIDPI (Bidens pilosa (BIDPI); [5]): 64% | herbicidal action against BIDPI (Bidens pilosa (BIDPI); [6]): 69% | herbicidal action against BIDPI (Bidens pilosa (BIDPI); simulated rainfall 30 min after treatment, 1 DAA): 63.66% | herbicidal action against BIDPI (Bidens pilosa (BIDPI); simulated rainfall 30 min after treatment, 2 DAA): 63% | herbicidal action against BIDPI (Bidens pilosa (BIDPI); simulated rainfall 30 min after treatment, 3 DAA): 82% | herbicidal action against BIDPI (Bidens pilosa (BIDPI); simulated rainfall 30 min after treatment, 7 DAA): 78.33% | herbicidal action against BIDPI (Bidens pilosa (BIDPI); [7]): 72.33% | herbicidal action against BIDPI (Bidens pilosa (BIDPI); [8]): 86.66% | herbicidal action against BIDPI (Bidens pilosa (BIDPI); [9]): 91.66% | herbicidal action against BIDPI (Bidens pilosa (BIDPI); [10]): 96.66% | herbicidal action against BIDPI (Bidens pilosa (BIDPI); simulated rainfall 6 hours after treatment, 1 DAA): 66.66% | herbicidal action against BIDPI (Bidens pilosa (BIDPI); simulated rainfall 6 hours after treatment, 2 DAA): 84% | herbicidal action against BIDPI (Bidens pilosa (BIDPI); simulated rainfall 6 hours after treatment, 3 DAA): 91.33% | herbicidal action against BIDPI (Bidens pilosa (BIDPI); simulated rainfall 6 hours after treatment, 7 DAA): 92.66% | herbicidal action against BIDPI (Bidens pilosa (BIDPI); [11]): 80% | herbicidal action against BIDPI (Bidens pilosa (BIDPI); [12]): 92% | herbicidal action against BIDPI (Bidens pilosa (BIDPI); [13]): 98% | herbicidal action against BIDPI (Bidens pilosa (BIDPI); [14]): 98.66% | herbicidal action against IPOGR [2, 3]: 20.33% | herbicidal action against IPOGR [2, 4]: 75% | herbicidal action against IPOGR [2, 5]: 82.33% | herbicidal action against IPOGR [2, 6]: 98.33% | herbicidal action against IPOGR ([2]; simulated rainfall 15 min after treatment, 14 DAA): 90% | herbicidal action against IPOGR [2, 7]: 24.66% | herbicidal action against IPOGR [2, 8]: 80% | herbicidal action against IPOGR [2, 9]: 94.33% | herbicidal action against IPOGR [2, 10]: 99.66% | herbicidal action against IPOGR ([2]; simulated rainfall 2 hours after treatment, 14 DAA): 100% | herbicidal action against IPOGR [2, 11]: 19.33% | herbicidal action against IPOGR [2, 12]: 93.66% | herbicidal action against IPOGR [2, 13]: 98% | herbicidal action against IPOGR [2, 14]: 98.66% | herbicidal action against IPOGR ([2]; without simulated rainfall, 14 DAA): 97.66%
